Data reported in patent publication US11865126B2, “Method for treating anxiety disorders, headache disorders, and eating disorders with psilocybin” (priority 2019, dated 2024).

Test system: healthy subjects
Assay: Phase 1 healthy volunteer study, single oral dose: treatment-emergent adverse events
Type: in vivo, human
Conditions: 25 mg
Description: A Phase 1 randomized, double-blind, placebo-controlled study to evaluate the effect of psilocybin on cognitive and emotional processing as compared to placebo in healthy volunteers was conducted. The study investigated the short-term (Day 7) and long-term (Day 28) effects of moderate (10 mg) and high doses (25 mg) of psilocybin on key domains of cognition, such as episodic memory, attention, working and spatial memory, social cognition and elements of executive function, including cognitive flexibility.
90 healthy subjects were studied. Approximately 50% of the subjects were psilocybin-naïve. For subjects with prior psilocybin experience, the last exposure was at least 1 year prior to the signing of the Informed Consent Form (ICF). Approximately 50% of the subjects were female. Subjects were stratified by sex and age (18-35 years old; >35 years old).
Each subject was assigned 1 treatment bottle containing 5 capsules packaged in a double-blind fashion, depending on the randomized treatment arm, the bottle contained one of the following: • a. Psilocybin 10 mg: 2×5-mg oral psilocybin capsules plus 3× placebo capsules • b. Psilocybin 25 mg: 5×5-mg oral psilocybin capsules • c. Placebo: 5× placebo capsules
Each 5-mg oral psilocybin capsule comprised 5 mg crystalline psilocybin in the form of Polymorph A, 12.5 mg of SMCC 50, 79.5 mg of SMCC 90, 1 mg sodium starch glycolate, 1 mg colloidal silicon dioxide, and 1 mg sodium stearyl fumarate
Adverse events: Throughout the course of the study, all AEs were monitored and recorded. Each AE was classified according to the following criteria: • i. […] Moderate: The AE produces some impairment of functioning, but is not hazardous to the subject's health. • iii. Severe: The AE produces significant impairment of functioning or incapacitation and is a definite hazard to the subject's health.
Selected Adverse Events of included: • (a) Euphoric mood • (b) Dissociative disorder • (c) Hallucination • (d) Psychotic disorder • (e) Cognitive disorder • (f) Disturbance in attention • (g) Altered mood • (h) Impairment of psychomotor skills • (i) Inappropriate affect • (j) Overdose • (k) Intentional product misuse • (l) Illusion
For example, drug-induced hepatitis that resolved without evidence of hepatic failure would not be considered life threatening even though drug-induced hepatitis can be fatal. • (c) Inpatient hospitalization or prolongation of existing hospitalization. • (d) Persistent or significant disability/incapacity. • (e) Congenital anomaly/birth defect in the offspring of a subject who received psilocybin. • (f) Other: Important medical events that may not result in death, be life-threatening, or require hospitalization, may be considered an SAE when, based upon appropriate medical judgment, they may jeopardize the subject and may require medical or surgical intervention to prevent one of the outcomes listed in this definition. […] Visits:
Visit 3 (V3): Drug Administration (Day 0): The subject was asked to eat a light breakfast at least two hours prior to coming to the clinic for study drug administration. On Day 0 (V3), the subject underwent the SSTS, had vital signs obtained, medications reviewed, AEs recorded and eligibility reviewed prior to being randomized to study drug. The study drug was administered to up to six subjects simultaneously in individual beds separated by a curtain. The subject was invited to put on eyeshades and headphones, lie down and listen to calming music for the rest of the session (six hours). The subject was supported 1:1 with a chaperone and supervised by the study psychiatrist and lead therapist.
Recording of adverse events and prior/concomitant medication was performed at each visit.
During administration of psilocybin, each subject received one on one support from a trained assisting therapist and each dosing session was supervised by a study psychiatrist and a lead therapist. […]

## CN(C)CCc1c[nH]c2cccc(OP(=O)(O)O)c12 [psilocybin]
  Any severe TEAE: % of subjects: (33.3) %
  Any severe TEAE: Events: 29
  Any severe TEAE: N (%): 10
  Emotional disorder, worst severity Mild: Events: 1
  Emotional disorder, worst severity Moderate: Events: 5
  Emotional disorder, worst severity Severe: Events: 0
  Emotional disorder, worst severity Severe: N (%): 0
  Emotional disorder: Events: 6
  Euphoric mood, worst severity Mild: Events: 3
  Euphoric mood, worst severity Mild: N (%): 3 (10.0)
  Euphoric mood, worst severity Moderate: Events: 4
  Euphoric mood, worst severity Severe: Events: 0
  Euphoric mood, worst severity Severe: N (%): 0
  Euphoric mood: Events: 8
  Fatigue, worst severity Mild: Events: 3
  Fatigue, worst severity Mild: N (%): 3 (10.0)
  Fatigue, worst severity Moderate: Events: 5
  Fatigue, worst severity Severe: Events: 0
  Fatigue, worst severity Severe: N (%): 0
  Fatigue: Events: 8
  Feeling abnormal, worst severity Mild: Events: 0
  Feeling abnormal, worst severity Mild: N (%): 0
  Feeling abnormal, worst severity Moderate: Events: 0
  Feeling abnormal, worst severity Moderate: N (%): 0
  Feeling abnormal, worst severity Severe: Events: 0
  Feeling abnormal, worst severity Severe: N (%): 0
  Feeling abnormal: Events: 0
  Feeling abnormal: N (%): 0
  Feeling of relaxation: Events: 1
  Gastrointestinal disorders, worst severity Mild: Events: 4
  Gastrointestinal disorders, worst severity Moderate: Events: 1
  Gastrointestinal disorders, worst severity Severe: Events: 0
  Gastrointestinal disorders, worst severity Severe: N (%): 0
  Gastrointestinal disorders: Events: 5
  General disorders and administration site conditions, worst severity Mild: Events: 8
  General disorders and administration site conditions, worst severity Moderate: Events: 7
  General disorders and administration site conditions, worst severity Moderate: N (%): 6 (20.0)
  General disorders and administration site conditions, worst severity Severe: Events: 1
  General disorders and administration site conditions: Events: 18
  Hallucination, auditory, worst severity Mild: Events: 1
  Hallucination, auditory, worst severity Moderate: Events: 3
  Hallucination, auditory, worst severity Moderate: N (%): 3 (10.0)
  Hallucination, auditory, worst severity Severe: Events: 0
  Hallucination, auditory, worst severity Severe: N (%): 0
  Hallucination, auditory: Events: 4
  Hallucination, tactile: Events: 4
  Hallucination, visual, worst severity Mild: Events: 3
  Hallucination, visual, worst severity Mild: N (%): 3 (10.0)
  Hallucination, visual, worst severity Moderate: Events: 13
  Hallucination, visual, worst severity Severe: Events: 5
  Hallucination, visual: Events: 22
  Hallucination, worst severity Mild: Events: 0
  Hallucination, worst severity Mild: N (%): 0
  Hallucination, worst severity Moderate: Events: 2
  Hallucination, worst severity Severe: Events: 0
  Hallucination, worst severity Severe: N (%): 0
  Hallucination: Events: 2
  Headache, worst severity Mild: Events: 10
  Headache, worst severity Moderate: Events: 5
  Headache, worst severity Severe: Events: 0
  Headache, worst severity Severe: N (%): 0
  Headache: Events: 16
  Hypoaesthesia, worst severity Mild: Events: 4
  Hypoaesthesia, worst severity Mild: N (%): 3 (10.0)
  Hypoaesthesia, worst severity Moderate: Events: 0
  Hypoaesthesia, worst severity Moderate: N (%): 0
  Hypoaesthesia, worst severity Severe: Events: 0
  Hypoaesthesia, worst severity Severe: N (%): 0
  Hypoaesthesia: Events: 4
  Hypoaesthesia: N (%): 3 (10.0)
  Illusion, worst severity Mild: Events: 4
  Illusion, worst severity Mild: N (%): 3 (10.0)
  Illusion, worst severity Moderate: Events: 12
  Illusion, worst severity Severe: Events: 7
  Illusion: Events: 26
  Infections and infestations, worst severity Mild: Events: 4
  Infections and infestations, worst severity Moderate: Events: 0
  Infections and infestations, worst severity Moderate: N (%): 0
  Infections and infestations, worst severity Severe: Events: 0
  Infections and infestations, worst severity Severe: N (%): 0
  Infections and infestations: Events: 4
  Investigations, worst severity Mild: Events: 1
  Investigations, worst severity Moderate: Events: 0
  Investigations, worst severity Moderate: N (%): 0
  Investigations, worst severity Severe: Events: 0
  Investigations, worst severity Severe: N (%): 0
  Investigations: Events: 1
  Mental fatigue: Events: 3
  Mental fatigue: N (%): 3 (10.0)
  Mood altered, worst severity Mild: Events: 3
  Mood altered, worst severity Moderate: Events: 7
  Mood altered, worst severity Moderate: N (%): 6 (20.0)
  Mood altered, worst severity Severe: Events: 9
  Mood altered: Events: 25
  Musculoskeletal and connective tissue disorders, worst severity Mild: Events: 3
  Musculoskeletal and connective tissue disorders, worst severity Moderate: Events: 1
  Musculoskeletal and connective tissue disorders, worst severity Severe: Events: 0
  Musculoskeletal and connective tissue disorders, worst severity Severe: N (%): 0
  Musculoskeletal and connective tissue disorders: Events: 4
  Musculoskeletal and connective tissue disorders: N (%): 3 (10.0)
  Nausea: Events: 3
  Nausea: N (%): 3 (10.0)
  Nervous system disorders, worst severity Mild: Events: 24
